Data as given in patent US7749980B2, “Non-nucleotide compositions and method for treating pain” (Inspire Pharmaceuticals, Inc., priority 2003, dated 2010).

Tested on: mice
Assay: acetic acid-induced abdominal constriction assay for visceral pain in mice
Type: in vivo
Details: for number of averaged abdominal constrictions during the observation time interval compared to saline control: 50 mg/kg i.p. in physiological saline, 10 minutes prior to i.p. 0.9% acetic acid, 10 minutes of observation starting 5 minutes after acetic acid, statistical difference versus saline control group; for pharmacological effect over saline vehicle control in reducing the abdominal constrictions induced by 0.9% acetic acid: similar studies, dose dependence
Description: The method employed is a modification of the abdominal constriction test described by Collier, et. al (Collier, et al., Br. J. Pharmacol. Chemother. 32: 295-310 (1968)). For the rest of the example, compound: 6-(phenylureido)purine-2′, 3′-(4-ethylcyclohexylspiroketyl)-5′-nicotinyl-ribofuranoside is named “Compound A” and {6-[6-(Cyclohexylmethyl-amino)-purin-9-yl]-2-isobutyl-tetrahydro-furo[3,4-d][1,3]dioxol-4-yl}-methanol is named “Compound B”.
Briefly, a group of eight mice is designated as the control group, and each of said mice in the group receives an intraperitoneal (i.p.) injection of physiological saline in a dose-volume: mouse-weight ratio of 5 mL/kg ten minutes prior to an i.p. injection of 0.9% acetic acid in physiological saline in a dose-volume: mouse-weight ratio of 10 mL/kg. Each of said mice in the control group is placed in its own observation chamber shortly after the acetic acid injection and is allowed to explore. Each testing period starts 5 minutes after the acetic acid injection into a mouse, and consists of 10 minutes of observation during which time the number of abdominal constrictions of the mouse are counted. Abdominal constriction is defined as a lengthwise stretching of the torso with concave arching of the back. An average number of total constrictions per mouse per observation time is calculated from mice in the control group, and this indicates a baseline level of pain response in the control group animals.
Compound A is administered i.p., at a dose of 50 mg/kg suspended in a volume of physiological saline (5 mL/kg), 10 minutes prior to the administration of acetic acid, as described for the control group above.
Compound B is administered i.p., at a dose of 50 mg/kg suspended in a volume of physiological saline (5 mL/kg), 10 minutes prior to the administration of acetic acid, as described for the control group above.

6-(phenylureido)purine-2′, 3′-(4-ethylcyclohexylspiroketyl)-5′-nicotinyl-ribofuranoside [Compound A]
number of averaged abdominal constrictions during the observation time interval compared to saline control: lower | pharmacological effect over saline vehicle control in reducing the abdominal constrictions induced by 0.9% acetic acid: dose dependent pharmacological effect

CC(C)CC1OC2C(CO)OC(n3cnc4c(NCC5CCCCC5)ncnc43)C2O1 (stereo not shown) [Compound B, {6-[6-(Cyclohexylmethyl-amino)-purin-9-yl]-2-isobutyl-tetrahydro-furo[3,4-d][1,3]dioxol-4-yl}-methanol]
number of averaged abdominal constrictions during the observation time interval compared to saline control: lower | pharmacological effect over saline vehicle control in reducing the abdominal constrictions induced by 0.9% acetic acid: dose dependent pharmacological effect
